Data taken from patent US20250114356A1, “INDAZOLE BASED COMPOUNDS AND ASSOCIATED METHODS OF USE” (Arvinas Operations, Inc., priority 2020, published 2025).

Key:
Format in all cases: cell-based
wildtype LRRK2 = target: T1, wildtype LRRK2 (Homo sapiens, UniProt Q5S007); experiment: LRRK2 degradation assay, wildtype LRRK2-HiBit expressed from plasmid in HEK293 cells; conditions: HEK293 cells transfected with HiBit-tagged wildtype LRRK2, 24 hours compound incubation; for Dmax: read-out: **WT Dmax (%); for DC50: read-out: *WT DC50
T1 construct: expressed in transfected cells; host or cells: HEK293 (ATCC CRL-1573), transient transfection, ubiquitin promoter
Summary of the method: (§1)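 HEK293 cells co-transfected with ubiquitin-promoter C-terminal HiBit-tagged wild-type or G2019S LRRK2 plus firefly luciferase, then treated with compound dose-responses for 24 hours at 37° C. HiBit/firefly luciferase ratio (dual Nano-Glo read) normalized to % DMSO median; DC50 and Dmax fitted per plate, 6 replicates over two days.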

G2019S LRRK2 = target: T2, G2019S LRRK2 (Homo sapiens, UniProt Q5S007, G2019S); experiment: LRRK2 degradation assay, G2019S LRRK2-HiBit expressed from plasmid in HEK293 cells; conditions: HEK293 cells transfected with HiBit-tagged G2019S LRRK2, 24 hours compound incubation
T2 construct: expressed in transfected cells; host or cells: HEK293 (ATCC CRL-1573), transient transfection, ubiquitin promoter
Summary of the method: as §1

[1] = target: T3, LRRK2 (endogenous gene tagged with a HiBit sequence) (Homo sapiens, UniProt Q5S007); experiment: LRRK2 degradation assay, endogenous LRRK2 gene tagged with HiBit in HEK293 cells; conditions: 24 hours compound incubation
T3 construct: endogenous in cells; host or cells: HEK293 with a HiBit knock-in at the endogenous LRRK2 locus, stably expressing firefly luciferase
Method: The assay measures the degradation of LRRK2 in cells where the C-terminus (3′) of the endogenous gene has been tagged with a HiBit sequence in HEK293 cells. The cells also express firefly lucisferase, expressed from a Cytomegalovirus promoter and introduced into the HiBit tagged cells and stably expressed. The Nano-Glo® Dual Luciferase Reporter Assay System (Promega™, Madison, WI) was utilized.
Day 1—Preparation of Compound and Assay Plates. Two sets of plates were prepared: a triplicate set for the HiBit assay in white 384-well plates and a triplicate set of plate in black 384-well plates for the Alamar Blue cell viability assay. Briefly, the growth media (DMEM+Glutamax-10% fetal bovine serum-1% Penicillin-Streptomicin) from two T128 flasks was aspirated from the flasks. Cells were washed with Dulbecco's Phosphate Buffered Saline (dPBS) and aspirated. Trypsin (3 mL per flask) was added and the flasks were incubated for 2-3 minutes.
Ten mL of OptiMEM-10% fetal bovine-1% penicillin-streptomycin (hereinafter, “OptiMEM media”) was added to the flask and the cells and transferred to a 50 mL conical tube. A cell count (25 ul of cell into Effendorf vial+25 ul of Trypan Blue Stain) was performed and the cell density adjusted to 15,000 cell/45 μl/well (3.33×10^5/mL) in OptiMEM media.
Forty-five microliters of the cell suspension (15,000 cells) was aliquoted to each well of the white 384-well plate. The plates incubated at room temperature for 10 minutes before being placed in the 37° C.+5% CO2 incubator overnight
Day 2—Compound Treatment. Exemplary compounds were prepared at a 1 mM starting concentration and 1:3 serial dilution for 11 points CRC prepared and stored in the freezer. The Master Compound Plate was thawed overnight at room temperature. DMSO (20 μL) was added into column 24 of the Master Compound Plate for negative control and 20 μL of 300 μM of Exemplary Compound 4 in column 23 as positive control.
Intermediate Compound Plate with 4% DMSO in OptiMEM Media. DMSO was added to warm OptiMEM media to achieve a 4% DMSO solution (approximately 50 mL/plate). One-hundred microliters of the OptiMEM-4% DMSO was aliquoted to each well of 384-Well Deep Well Microplates.
The Master Compound Plate and the Intermediate Compound Plate were spun down.
One microliter of compound from the Master Compound Plate was transferred into the Intermediate plate (a 1:100 dilution). […]
Day 3—HiBit Assay. […] Fluorescence of each plate was read on a plated reader for the Alamar Blue viability assay. […]
The One Glo luciferase mixture was prepared. […] The luminescence of each plate was read on a plate reader.
1:100 DLR substrate and 1:100 LgBiT Protein dilution were added to the Promega Stop and Glo buffer and mixed just before addition to assay plates. […] The luminescence of each plate was read on a plate reader. […]

T2 sequence (Q5S007 whole entry G2019S): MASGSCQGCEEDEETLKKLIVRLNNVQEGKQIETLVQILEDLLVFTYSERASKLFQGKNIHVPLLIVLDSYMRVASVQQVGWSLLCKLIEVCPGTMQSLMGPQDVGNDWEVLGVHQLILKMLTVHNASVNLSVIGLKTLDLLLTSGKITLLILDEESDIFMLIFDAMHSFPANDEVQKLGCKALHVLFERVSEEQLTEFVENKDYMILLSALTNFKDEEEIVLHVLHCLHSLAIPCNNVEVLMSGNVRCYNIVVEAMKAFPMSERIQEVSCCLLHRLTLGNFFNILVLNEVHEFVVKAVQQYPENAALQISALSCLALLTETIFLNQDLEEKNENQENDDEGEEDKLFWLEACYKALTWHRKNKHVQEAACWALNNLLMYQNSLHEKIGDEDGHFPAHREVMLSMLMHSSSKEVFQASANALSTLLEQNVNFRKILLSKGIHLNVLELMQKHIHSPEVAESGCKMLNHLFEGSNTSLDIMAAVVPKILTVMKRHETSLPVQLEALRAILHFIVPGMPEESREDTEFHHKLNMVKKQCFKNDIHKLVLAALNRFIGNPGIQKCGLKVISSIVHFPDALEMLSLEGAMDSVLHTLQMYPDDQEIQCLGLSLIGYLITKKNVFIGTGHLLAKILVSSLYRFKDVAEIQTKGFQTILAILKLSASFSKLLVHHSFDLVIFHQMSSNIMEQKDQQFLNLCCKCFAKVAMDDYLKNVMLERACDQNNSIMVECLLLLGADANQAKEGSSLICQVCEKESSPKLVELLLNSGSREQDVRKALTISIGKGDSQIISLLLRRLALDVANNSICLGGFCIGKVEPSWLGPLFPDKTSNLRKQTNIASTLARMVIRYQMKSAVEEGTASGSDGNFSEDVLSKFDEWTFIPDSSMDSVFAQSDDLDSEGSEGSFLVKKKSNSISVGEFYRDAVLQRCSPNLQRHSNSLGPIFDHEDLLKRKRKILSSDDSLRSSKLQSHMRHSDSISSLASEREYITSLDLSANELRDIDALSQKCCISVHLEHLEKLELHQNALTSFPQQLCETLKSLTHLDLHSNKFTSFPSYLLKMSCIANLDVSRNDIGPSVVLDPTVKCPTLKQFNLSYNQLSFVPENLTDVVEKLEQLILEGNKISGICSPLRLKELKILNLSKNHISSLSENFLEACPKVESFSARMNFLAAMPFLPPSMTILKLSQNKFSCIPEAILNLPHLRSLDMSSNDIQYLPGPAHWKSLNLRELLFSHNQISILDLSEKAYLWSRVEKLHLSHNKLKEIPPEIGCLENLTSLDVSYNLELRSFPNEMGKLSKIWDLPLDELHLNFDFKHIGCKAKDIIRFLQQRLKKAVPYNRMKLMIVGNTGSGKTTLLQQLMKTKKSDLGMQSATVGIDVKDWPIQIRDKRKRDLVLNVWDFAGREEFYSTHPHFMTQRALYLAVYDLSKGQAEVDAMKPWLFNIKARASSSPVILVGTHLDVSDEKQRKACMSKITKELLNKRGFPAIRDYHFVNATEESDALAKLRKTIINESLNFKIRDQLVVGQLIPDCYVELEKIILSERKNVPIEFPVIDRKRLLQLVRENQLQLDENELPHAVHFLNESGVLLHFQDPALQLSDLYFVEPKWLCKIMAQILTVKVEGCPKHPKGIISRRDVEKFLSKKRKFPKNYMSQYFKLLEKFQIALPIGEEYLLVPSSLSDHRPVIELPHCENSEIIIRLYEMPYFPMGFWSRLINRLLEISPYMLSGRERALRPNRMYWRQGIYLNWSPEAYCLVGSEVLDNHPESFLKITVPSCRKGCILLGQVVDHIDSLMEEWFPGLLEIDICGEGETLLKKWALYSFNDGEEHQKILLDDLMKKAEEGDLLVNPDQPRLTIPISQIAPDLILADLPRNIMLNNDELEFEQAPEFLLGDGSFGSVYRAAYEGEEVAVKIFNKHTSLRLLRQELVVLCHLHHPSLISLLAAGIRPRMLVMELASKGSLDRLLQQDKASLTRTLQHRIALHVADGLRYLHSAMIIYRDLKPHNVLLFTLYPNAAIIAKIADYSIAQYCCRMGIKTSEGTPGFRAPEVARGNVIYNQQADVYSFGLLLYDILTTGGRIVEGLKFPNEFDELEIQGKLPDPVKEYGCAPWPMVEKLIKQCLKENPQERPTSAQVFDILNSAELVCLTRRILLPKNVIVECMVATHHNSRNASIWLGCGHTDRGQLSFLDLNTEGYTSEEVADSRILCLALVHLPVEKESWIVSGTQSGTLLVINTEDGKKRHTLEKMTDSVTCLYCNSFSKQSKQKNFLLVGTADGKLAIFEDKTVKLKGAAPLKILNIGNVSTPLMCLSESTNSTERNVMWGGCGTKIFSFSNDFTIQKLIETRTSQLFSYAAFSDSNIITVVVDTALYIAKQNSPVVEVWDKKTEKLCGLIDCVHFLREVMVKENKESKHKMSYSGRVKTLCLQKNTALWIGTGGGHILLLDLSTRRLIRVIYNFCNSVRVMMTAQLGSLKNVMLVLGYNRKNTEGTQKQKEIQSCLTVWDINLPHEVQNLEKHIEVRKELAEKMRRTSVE
T1 sequence (Q5S007 whole entry): as the sequence (Q5S007 whole entry G2019S) above, with S2019G counted along it
T3 sequence (Q5S007 whole entry): as the sequence (Q5S007 whole entry G2019S) above, with S2019G counted along it

Row | SMILES | Dmax (wildtype LRRK2) | DC50 (wildtype LRRK2) | DC50 (G2019S LRRK2) | Dmax (G2019S LRRK2) | Dmax ([1]; read-out: **Endogenous WT Dmax (%)) | DC50 ([1]; read-out: *Endogenous WT DC50)
1 | C[C@H]1CN(c2cc(-c3n[nH]c4ccc(OC5(C)CC5)cc34)ncn2)CCN1CC1CCN(CC2CCN(c3ccc4c(c3)C(=O)N(C3CCC(=O)NC3=O)C4=O)CC2)CC1 (stereo partly drawn) [compound 24, 2-(2,6-dioxopiperidin-3-yl)-5-{4-[(4-{[(2S)-2-methyl-4-{6-[5-(1-methylcyclopropoxy)-1H-indazol-3-yl]pyrimidin-4-yl}piperazin-1-yl]methyl}piperidin-1-yl)methyl]piperidin-1-yl}-2,3-dihydro-1H-isoindole-1,3-dione] | 50 to 70% | < 10 nM | < 10 nM | ≥ 70% | 50 to 70% | < 10 nM
2 | CC(C)Oc1ccc2[nH]nc(-c3cc(N4CCN(CC(F)(F)C5CCN(CC6CCN(c7ccc8c(c7)C(=O)N(C7CCC(=O)NC7=O)C8=O)CC6)CC5)CC4)ncn3)c2c1 (stereo not shown) [compound 40, 5-(4-((4-(1,1-difluoro-2-(4-(6-(5-isopropoxy-1H-indazol-3-yl)pyrimidin-4-yl)piperazin-1-yl)ethyl)piperidin-1-yl)methyl)piperidin-1-yl)-2-(2,6-dioxopiperidin-3-yl)isoindoline-1,3-dione] | ≥ 70% | 10 to 50 nM | 10 to 50 nM | 50 to 70% | – | –
3 | CC(C)Oc1ccc2[nH]nc(-c3cc(N4CCN(CCOCCN5CCN(c6ccc7c(c6)C(=O)N(C6CCC(=O)NC6=O)C7=O)CC5)[C@@H](C)C4)ncn3)c2c1 (stereo partly drawn) [compound 22, 2-(2,6-dioxo-3-piperidyl)-5-[4-[2-[2-[(2S)-4-[6-(5-isopropoxy-1H-indazol-3-yl)pyrimidin-4-yl]-2-methyl-piperazin-1-yl]ethoxy]ethyl]piperazin-1-yl]isoindoline-1,3-dione] | < 50% | 10 to 50 nM | 10 to 50 nM | < 50% | – | –
4 | C[C@H]1CN(c2cc(-c3n[nH]c4ccc(OC5(C)CC5)cc34)ncn2)CCN1CCOCCOc1ccc2c(c1)C(=O)N(C1CCC(=O)NC1=O)C2=O (stereo partly drawn) [compound 2, 2-(2,6-dioxopiperidin-3-yl)-5-(2-{2-[(2S)-2-methyl-4-{6-[5-(1-methylcyclopropoxy)-1H-indazol-3-yl]pyrimidin-4-yl}piperazin-1-yl]ethoxy}ethoxy)-2,3-dihydro-1H-isoindole-1,3-dione] | 50 to 70% | < 10 nM | < 10 nM | < 50% | – | –
5 | CC(C)Oc1ccc2[nH]nc(-c3cc(N4CCN(CCN5CCC(CN6CCN(c7ccc8c(c7)C(=O)N(C7CCC(=O)NC7=O)C8=O)CC6)CC5)CC4)ncn3)c2c1 (stereo not shown) [compound 27, 2-(2,6-dioxopiperidin-3-yl)-5-[4-({1-[2-(4-{6-[5-(propan-2-yloxy)-1H-indazol-3-yl]pyrimidin-4-yl}piperazin-1-yl)ethyl]piperidin-4-yl}methyl)piperazin-1-yl]-2,3-dihydro-1H-isoindole-1,3-dione] | ≥ 70% | < 10 nM | < 10 nM | ≥ 70% | – | –
6 | CC(C)Oc1cc2c(-c3cc(N4CCN(CCOCCOCCOCCOc5ccc6c(c5)C(=O)N(C5CCC(=O)NC5=O)C6=O)[C@@H](C)C4)ncn3)n[nH]c2cc1F (stereo partly drawn) [compound 15, 2-(2,6-dioxopiperidin-3-yl)-5-{2-[2-(2-{2-[(2S)-4-{6-[6-fluoro-5-(propan-2-yloxy)-1H-indazol-3-yl]pyrimidin-4-yl}-2-methylpiperazin-1-yl]ethoxy}ethoxy)ethoxy]ethoxy}-2,3-dihydro-1H-isoindole-1,3-dione] | < 50% | ≥ 100 nM | ≥ 100 nM | < 50% | – | –
7 | C[C@H]1CN(c2cc(-c3n[nH]c4ccc(OC5(C)CC5)cc34)ncn2)CCN1CCOCCOCCOCCOCCOc1ccc2c(c1)C(=O)N(C1CCC(=O)NC1=O)C2=O (stereo partly drawn) [compound 5, 2-(2,6-dioxopiperidin-3-yl)-5-({14-[(2S)-2-methyl-4-{6-[5-(1-methylcyclopropoxy)-1H-indazol-3-yl]pyrimidin-4-yl}piperazin-1-yl]-3,6,9,12-tetraoxatetradecan-1-yl}oxy)-2,3-dihydro-1H-isoindole-1,3-dione] | ≥ 70% | 10 to 50 nM | 10 to 50 nM | ≥ 70% | – | –
8 | CC(C)Oc1ccc2[nH]nc(-c3cc(N4CCN(CCN5CC(CN6CCN(c7ccc8c(c7)C(=O)N(C7CCC(=O)NC7=O)C8=O)CC6)C5)CC4)ncn3)c2c1 (stereo not shown) [compound 45, 2-(2,6-dioxopiperidin-3-yl)-5-(4-((1-(2-(4-(6-(5-isopropoxy-1H-indazol-3-yl)pyrimidin-4-yl)piperazin-1-yl)ethyl)azetidin-3-yl)methyl)piperazin-1-yl)isoindoline-1,3-dione] | < 50% | 10 to 50 nM | ≥ 100 nM | < 50% | – | –
9 | CC(C)Oc1ccc2[nH]nc(-c3cc(N4CCN(CCN5CC(OCCOc6ccc7c(c6)C(=O)N(C6CCC(=O)NC6=O)C7=O)C5)[C@@H](C)C4)ncn3)c2c1 (stereo partly drawn) [compound 32, 2-(2,6-dioxopiperidin-3-yl)-5-{2-[(1-{2-[(2S)-2-methyl-4-{6-[5-(propan-2-yloxy)-1H-indazol-3-yl]pyrimidin-4-yl}piperazin-1-yl]ethyl}azetidin-3-yl)oxy]ethoxy}-2,3-dihydro-1H-isoindole-1,3-dione] | < 50% | ≥ 100 nM | ≥ 100 nM | < 50% | – | –
10 | CC(C)Oc1ccc2[nH]nc(-c3cc(N4CCN(CCN5CC6(CN(CCOc7ccc8c(c7)C(=O)N(C7CCC(=O)NC7=O)C8=O)C6)C5)[C@@H](C)C4)ncn3)c2c1 (stereo partly drawn) [compound 35, 2-(2,6-dioxopiperidin-3-yl)-5-[2-(6-{2-[(2S)-2-methyl-4-{6-[5-(propan-2-yloxy)-1H-indazol-3-yl]pyrimidin-4-yl}piperazin-1-yl]ethyl}-2,6-diazaspiro[3.3]heptan-2-yl)ethoxy]-2,3-dihydro-1H-isoindole-1,3-dione] | < 50% | 50 to 100 nM | 50 to 100 nM | < 50% | – | –
11 | C[C@H]1CN(c2cc(-c3n[nH]c4ccc(OC5(C)CC5)cc34)ncn2)CCN1CCOC1CCN(CC2CCN(c3ccc4c(c3)C(=O)N(C3CCC(=O)NC3=O)C4=O)CC2)CC1 (stereo partly drawn) [compound 33, 2-(2,6-dioxopiperidin-3-yl)-5-{4-[(4-{2-[(2S)-2-methyl-4-{6-[5-(1-methylcyclopropoxy)-1H-indazol-3-yl]pyrimidin-4-yl}piperazin-1-yl]ethoxy}piperidin-1-yl)methyl]piperidin-1-yl}-2,3-dihydro-1H-isoindole-1,3-dione] | ≥ 70% | 10 to 50 nM | < 10 nM | ≥ 70% | – | –
